Assay results taken from PMC10996005, “Identification and Development of Cyclic Peptide Inhibitors of Hypoxia Inducible Factors 1 and 2 That Disrupt Hypoxia-Response Signaling in Cancer Cells” (Journal of the American Chemical Society, 2024).
Where a SMILES comes first, the peptide text is derived from it. [ ]: non-standard residue; d: D form. Phe(4-I) = N[C@@H](Cc1ccc(I)cc1)C(=O)O

Assays:
[1] = molecular target: T1, HIF-1α PAS-B domain (Homo sapiens, UniProt Q16665); test: MST binding to the PAS-B domain of HIF-1α
T1 construct: made in house
T1 sequence (Q16665 238-349 limits assumed): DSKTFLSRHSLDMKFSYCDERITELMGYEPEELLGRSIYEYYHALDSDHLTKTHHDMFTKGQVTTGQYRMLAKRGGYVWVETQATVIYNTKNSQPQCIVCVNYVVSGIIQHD
Procedure: All reagents were purchased from Fisher Scientific or Sigma Aldrich UK unless specified otherwise.
Restriction enzymes and microbiology reagents were purchased from New England Biolabs Inc., Fisher Scientific (UK) or Promega (UK) and were used as directed by the manufacturer. Primers and oligonucleotides were synthesised by Integrated DNA Technologies (UK). DNA sequencing was carried out by Eurofins MWG Operon (Germany).
Construction of the RTHS and SICLOPPS library, screening, purification of recombinant HIF proteins, and the PLA was conducted as previously described in Miranda et al., J. Am. Chem. Soc., 2013, 135(28); […]
Protein labelling with MST dye
Protein was buffer exchanged from storage buffer into labelling buffer (0.1 M NaHCO3, pH 8.5) using a PD spintrap G-25 column (GE healthcare). The protein concentration was then adjusted to 20 µM.
The commercially sourced MST dye (NanoTemper) was prepared as a 470 µM solution in DMSO, which was then further diluted to 60 µM using labelling buffer. To the protein solution was added an equal volume of dye solution, and the labelling reaction was left for 1 hour in the dark at room temperature.
The labelled protein was separated from unreacted dye by elution through a PD minitrap G-25 column (GE healthcare). Labelled protein was then aliquoted and stored at -80 °C. Extent of labelling was measured by the absorbance obtained using the UV-vis mode on a NanoDrop ND-1000 Spectrophotometer (NanoDrop Technologies, USA).
Labelled protein was thawed on ice and diluted to 50 nM in assay buffer containing 50 mM Tris pH 8.0, 150 mM NaCl, 5% (v/v) glycerol, 1 mM TCEP and 0.05% TWEEN-20. The protein solution was then centrifuged at 12000 rpm for 15 minutes at 4 °C and left on ice. Compounds were prepared and serially diluted in DMSO at 10x assay concentration, before diluting to 2x assay concentration in assay buffer.
The 2x compound solutions were then mixed 1:1 (v/v) with 50 nM labelled protein solution and left to incubate for 1 hour at room temperature. Solutions were then loaded into Monolith NT.115 Premium Capillaries (NanoTemper) and placed in the sample tray. MST experiments were carried out

[2] = molecular target: T2, HIF-1α in Panc-1 cells (Homo sapiens, UniProt Q16665); test: Cellular thermal shift assay; format: cell-based; details: 40 μM, samples heated to 54 °C
T2 construct: endogenous in cells; host or cells: PANC-1
T2 sequence (Q16665 whole entry): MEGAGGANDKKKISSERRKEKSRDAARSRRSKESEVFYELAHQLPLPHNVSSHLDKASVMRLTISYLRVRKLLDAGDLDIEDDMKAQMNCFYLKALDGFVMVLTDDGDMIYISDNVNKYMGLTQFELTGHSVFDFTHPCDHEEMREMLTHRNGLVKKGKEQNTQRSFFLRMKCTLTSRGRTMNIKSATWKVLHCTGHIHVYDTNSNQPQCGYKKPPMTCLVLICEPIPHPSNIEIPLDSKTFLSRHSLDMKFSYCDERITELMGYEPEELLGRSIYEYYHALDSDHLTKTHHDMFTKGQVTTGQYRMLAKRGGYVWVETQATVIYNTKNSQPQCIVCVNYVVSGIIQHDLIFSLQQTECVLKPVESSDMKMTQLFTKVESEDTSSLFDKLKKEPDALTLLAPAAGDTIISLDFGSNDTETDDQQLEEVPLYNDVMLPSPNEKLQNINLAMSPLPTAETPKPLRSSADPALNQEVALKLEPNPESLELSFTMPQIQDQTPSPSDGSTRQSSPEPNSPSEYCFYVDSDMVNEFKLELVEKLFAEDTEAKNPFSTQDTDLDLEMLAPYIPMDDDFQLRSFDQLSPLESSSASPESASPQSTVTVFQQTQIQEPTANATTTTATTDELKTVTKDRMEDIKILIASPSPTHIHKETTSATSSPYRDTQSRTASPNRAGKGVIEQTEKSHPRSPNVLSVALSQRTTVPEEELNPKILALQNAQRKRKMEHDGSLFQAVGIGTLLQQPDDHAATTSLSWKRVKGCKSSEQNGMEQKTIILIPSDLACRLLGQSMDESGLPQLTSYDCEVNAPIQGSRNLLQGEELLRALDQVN
Procedure: Next, we used a cellular-thermal shift assay[40] to assess whether our lead molecule binds to HIF-1α in the intracellular environment. We observed a 2.9 ± 0.4-fold increased level of HIF-1α protein in Panc-1 (pancreatic cancer) cells treated with 40 μM cyclo-CRLII(4-iodo)F compared to DMSO control in samples heated to 54 °C, indicating intracellular binding of this compound to its protein target (Figure 6d). […]
highest pLDDT score was relaxes with the inbuilt amber energy minimisation and used for subsequent docking steps. HADDOCK docking was performed by assigning the HIF-1α PAS-B domain (residues 214-335) and CRLIIF residues 1, 5 and 6 as active residue binders and clustered using the inbuilt RMSD clustering algorithm.
Cellular Thermal Shift Assay
Pancreatic cancer cells (PANC-1) were plated in a T75 flask at 80% confluency overnight under normoxic conditions. The cells were then dosed with compound and incubated for 18 hours under hypoxic conditions (1% O2, 94% N2, 5% CO2, 80% Humidity). The cells were subsequently washed with PBS and divided into several aliquots, each of which was exposed to different temperatures (45°C, 48°C, 51°C, and 54°C) for 30 seconds on a thermal cycler (Bio-Rad). […] The concentration of the extracted proteins was measured using the BCA Protein Assay Kit (Sigma) following the manufacturer's instructions. […]

improvement in HIF-1α binding affinity compared to the parent cyclic peptide cyclo-CRLIIF ([1]; MST KD ratio): 4.6 fold
Kd ([1]; MST, mean ± SEM, n = 2 (n = 1 for most C1 analogues, n = 3 in Figure S2), read-out: KD for HIF-1α PAS-B): 800 ± 200 nM
increased level of HIF-1α protein compared to DMSO control [2]: 2.9 ± 0.4 fold
Compound: CC[C@H](C)[C@@H]1NC(=O)[C@H](CC(C)C)NC(=O)[C@H](CCCNC(=N)N)NC(=O)[C@H](CS)NC(=O)[C@H](Cc2ccc(I)cc2)NC(=O)[C@H]([C@@H](C)CC)NC1=O [cyclo-CRLII(4-iodo)F] (cyclo(CRLII[Phe(4-I)]))
